Assay results reported in patent US20080108697A1, “Device for packaging an oxaliplatin solution” (priority 2001, published 2008).

Assays:
[1] = Stability of aqueous oxaliplatin preparations in type I glass bottles under normal conditions (25° C., 60% relative humidity), total impurities by HPLC; assay type: physicochemical; settings: for Level of impurity 5 years: 2 mg/ml, 50 ml bottle (ratio 0.12); for Level of impurity 5 years / Level of impurity 1 month / Level of impurity 2.5 months / Level of impurity 4 months / Level of impurity 5.5 months / Level of impurity 7 months / Level of impurity 10 months: 25° C./60% RH
Method: To carry out this trial, four series of bottles, consisting of a colorless type I glass, all of cylindrical shape but of different volumes, were used. Table 2 assembles, for each series of bottles, their so-called “useful” capacity, their so-called “brim” capacity, the inner diameter of these bottles, that of their neck and their height.
These bottles, used for the first time, were subjected beforehand to three cycles of washing and rinsing with hot water heated to about 50° C. and water of so-called PI grade before being dried.
Three oxaliplatin stock solutions at concentrations of 2 mg/ml, 5 mg/ml and 7 mg/ml, respectively, were prepared in the usual manner using PI grade water as solvent. No particular stabilizing agent was used.
Aliquots of these preparations were collected and then transferred under aseptic filling conditions into different bottles so as to reach the respective level corresponding to the heights indicated below. The bottles were then hermetically closed by seaming a cap.
For studies of stability under normal conditions, a first portion of these bottles were then placed in a first chamber thermostated at a temperature of 25° C. and at a relative humidity of 60%. These bottles were maintained upright and at rest without particular stirring for the periods indicated below.
Samples were collected at the periods indicated and then analyzed by high-performance liquid chromatography according to a conventional method in order to quantify the level of noncharacterized total impurities, expressed as a percentage by weight, relative to the quantities of oxaliplatin present in each of the samples.
This study was performed on groups of bottles having a useful capacity of 5 ml, 15 ml and 20 ml, respectively, filled as described above with aliquots of a stock solution at a concentration of 5 mg/ml, and then stored under the conditions mentioned above for a period of at least 10 months.
Samples were collected at periods of 1 month, and then 2.5 months, 4 months, 5.5 months, 7 months and 10 months, respectively, after bottling.
This study was performed as above, with the difference that the bottles were loaded with aliquots of a stock solution at a concentration of 7 mg/ml and samples were collected at the same periods.
This study was performed on three batches of bottles having the same useful capacity of 50 ml, filled as described above with aliquots of the same volume of a stock solution at a concentration of 2 mg/ml, and then stored under the conditions mentioned above for a period of 5 years. At the end of this period, samples were collected for analysis.

[2] = Stability study under accelerated conditions (40° C., 75% humidity); assay type: physicochemical; settings: aqueous solution in the selected bottles and filling conditions, humidity 75%
Method: Finally, it will be noted that the applicant has carried out a study of stability under accelerated conditions intended to anticipate stabilities on a scale of 3 years. To this effect, bottles were placed in a chamber thermostated at a temperature of 40° C. and in an atmosphere having a humidity of 75%. Samples were regularly collected and then analyzed.

[3] = plastic material free of PVC in direct contact; period of at least one year; cited from earlier work
[4] = 5 mg/ml, 5 ml bottle (ratio 0.26)
[5] = 5 mg/ml, 15 ml bottle (ratio 0.20)
[6] = 5 mg/ml, 20 ml bottle (ratio 0.17)
[7] = deduced from curve of FIG. 1 (4 months), c=5 mg/ml
[8] = deduced from curve of FIG. 2 (4 months), printed c=5 mg/ml

With `O=C1[O][Pt]2([NH][C@@H]3CCCC[C@H]3[NH]2)[O]C1=O` [oxaliplatin, Oxaliplatin] the “Level of impurity 5 years” value ([1]; batch 1) was 1.47 % by weight, the “Level of impurity 5 years” value ([1]; batch 2) was 1.56 % by weight and the “Level of impurity 5 years” value ([1]; batch 3) was 1.55 % by weight. The “Level of impurity 1 month” value ([1]; 5 mg/ml aqueous solution, bottle useful capacity 5 ml (surface area/volume ratio 0.26)) was 2.34 % by weight, the “Level of impurity 2.5 months” value [1, 4] was 2.55 % by weight and the “Level of impurity 4 months” value [1, 4] was 2.89 % by weight. The “Level of impurity 5.5 months” value [1, 4] was 2.70 % by weight, the “Level of impurity 7 months” value [1, 4] was 3.19 % by weight and the “Level of impurity 10 months” value [1, 4] was 3.64 % by weight. For the same compound, the “Level of impurity 1 month” value [1, 5] was 1.15 % by weight, the “Level of impurity 2.5 months” value [1, 5] was 1.16 % by weight and the “Level of impurity 4 months” value [1, 5] was 1.23 % by weight. For the same compound, the “Level of impurity 5.5 months” value [1, 5] was 1.50 % by weight, the “Level of impurity 7 months” value [1, 5] was 1.56 % by weight and the “Level of impurity 10 months” value [1, 5] was 1.59 % by weight. For the same compound, the “Level of impurity 1 month” value [1, 6] was 1.06 % by weight, the “Level of impurity 2.5 months” value [1, 6] was 1.11 % by weight and the “Level of impurity 4 months” value [1, 6] was 1.13 % by weight. For the same compound, the “Level of impurity 5.5 months” value [1, 6] was 1.38 % by weight, the “Level of impurity 7 months” value [1, 6] was 1.42 % by weight and the “Level of impurity 10 months” value [1, 6] was 1.45 % by weight. For the same compound, the “Level of impurity 1 month” value ([1]; 7 mg/ml, 5 ml bottle) was 1.87 % by weight, the “Level of impurity 2.5 months” value ([1]; 7 mg/ml, 5 ml bottle) was 2.09 % by weight and the “Level of impurity 4 months” value ([1]; 7 mg/ml, 5 ml bottle) was 2.33 % by weight. The “Level of impurity 5.5 months” value ([1]; 7 mg/ml, 5 ml bottle) was 2.56 % by weight, the “Level of impurity 7 months” value ([1]; 7 mg/ml, 5 ml bottle) was 2.75 % by weight and the “Level of impurity 10 months” value ([1]; 7 mg/ml, 5 ml bottle) was 2.98 % by weight. For the same compound, the “Level of impurity 1 month” value ([1]; 7 mg/ml, 15 ml bottle) was 0.96 % by weight, the “Level of impurity 2.5 months” value ([1]; 7 mg/ml, 15 ml bottle) was 1.03 % by weight and the “Level of impurity 4 months” value ([1]; 7 mg/ml, 15 ml bottle) was 1.12 % by weight. For the same compound, the “Level of impurity 5.5 months” value ([1]; 7 mg/ml, 15 ml bottle) was 1.19 % by weight, the “Level of impurity 7 months” value ([1]; 7 mg/ml, 15 ml bottle) was 1.23 % by weight and the “Level of impurity 10 months” value ([1]; 7 mg/ml, 15 ml bottle) was 1.30 % by weight. For the same compound, the “Level of impurity 1 month” value ([1]; 7 mg/ml, 20 ml bottle) was 0.70 % by weight, the “Level of impurity 2.5 months” value ([1]; 7 mg/ml, 20 ml bottle) was 0.81 % by weight and the “Level of impurity 4 months” value ([1]; 7 mg/ml, 20 ml bottle) was 0.97 % by weight. The “Level of impurity 5.5 months” value ([1]; 7 mg/ml, 20 ml bottle) was 1.04 % by weight, the “Level of impurity 7 months” value ([1]; 7 mg/ml, 20 ml bottle) was 1.07 % by weight and the “Level of impurity 10 months” value ([1]; 7 mg/ml, 20 ml bottle) was 1.11 % by weight. The “R0, theoretical maximum surface area/volume ratio for which no impurity would be quantifiable” value [1, 7] was 0.10, the “constant A of R=R0+A.c.I” value [1, 7] was 0.01 ml/(mg.m) and the “R0, theoretical maximum surface area/volume ratio for which no impurity would be quantifiable” value [1, 8] was 0.11. The “constant A of R=R0+A.c.I” value [1, 8] was 0.009 ml/(mg.m), the “period of storage suggested by accelerated stability study” value [2] was “at least 36 months” and the “degradation on preservation in flexible bags for infusion” value [3] was “no degradation”.
